Earlier results on 52 compounds are cited in paper PMC11187573, “Identification of SARS-CoV-2 Mpro inhibitors through deep reinforcement learning for de novo drug design and computational chemistry approaches” (RSC Medicinal Chemistry, 2024).

In general, IC50 refers to the concentration needed to halve the response being measured.

One series has as its system SARS, SARS-CoV-2 and MERS Mpro. The conditions noted are these: Origin COVID_Moonshot; ref COVID Moonshot; cited from earlier work.
Take `CC(C)C[C@@H]1CN(C(=O)CCl)CCN1Cc1cccc(Cl)c1` [DAN-LON-a5fc619e-3, CC(C)C[C@H](C1)N(Cc2cccc(Cl)c2)CCN1C(CCl)=O]: the IC50 is 784 nM. On to `O=C(CCl)N1CC2CC1CN2Cc1cccc(Cl)c1` (stereo not shown) [DAN-LON-a5fc619e-8, O=C(CCl)N1C(C2)CN(Cc3cccc(Cl)c3)C2C1], for which the IC50 was 2170 nM. In the case of `CCNc1ncc(C#N)cc1CN1CCN(C(=O)CCl)CC1` [DAR-DIA-fb20be43-4, CCNc(nc1)c(CN(CC2)CCN2C(CCl)=O)cc1C#N], the IC50 is 3220 nM. As to `N#Cc1cc(CN2CCN(C(=O)CCl)CC2)c2ccccc2c1` [DAR-DIA-fb20be43-6, N#Cc1cc2ccccc2c(CN(CC2)CCN2C(CCl)=O)c1], the IC50 is 4610 nM. Take `COc1cc(CN2CCN(C(=O)CCl)CC2)c2ccccc2c1` [DAR-DIA-fb20be43-7, COc1cc2ccccc2c(CN(CC2)CCN2C(CCl)=O)c1]: the IC50 was 2750 nM. Regarding `CC(NC(=O)CCl)c1cc(Cl)cc(-c2ccc(S(N)(=O)=O)cc2)c1` (stereo not shown) [DAV-CRI-14a23e73-1, CC(c1cc(Cl)cc(-c(cc2)ccc2S(N)(=O)=O)c1)NC(CCl)=O], the IC50 was 466 nM. For `O=C(Nc1cccnc1)N(CCC1CCCCC1)c1cccc(Cl)c1` [JOR-UNI-2fc98d0b-12, O=C(Nc1cnccc1)N(CCC1CCCCC1)c1cccc(Cl)c1], the IC50 is 3060 nM. `O=C(NCc1ccc2c(c1)OCO2)c1nc(S(=O)(=O)Cc2ccccc2)ncc1Cl` [LON-WEI-4d77710c-10, O=C(c(nc(nc1)S(Cc2ccccc2)(=O)=O)c1Cl)NCc(cc1)cc2c1OCO2]: the IC50 is 1400 nM.

The same series, now with this note: Origin ChEMBL; ref ChEMBL; cited from earlier work.
In the case of `O=C1C(Cl)=C(Cl)C(=O)C(Cl)=C1Cl` [CHEMBL192627, O=C(C(Cl)=C(C1=O)Cl)C(Cl)=C1Cl], the IC50 is 20 nM.

With `O=C(CSc1nccc(-c2csc(-c3ccccc3)n2)n1)Nc1cc(Cl)cc(Cl)c1` [CHEMBL208732, O=C(CSc1nc(-c2csc(-c3ccccc3)n2)ccn1)Nc1cc(Cl)cc(Cl)c1], the IC50 is 3000 nM. With `O=C(Oc1ccc(S(=O)(=O)c2ccc(OC(=O)C(Cl)=C(Cl)Cl)cc2)cc1)C(Cl)=C(Cl)Cl` [CHEMBL212454, O=C(C(Cl)=C(Cl)Cl)Oc(cc1)ccc1S(c(cc1)ccc1OC(C(Cl)=C(Cl)Cl)=O)(=O)=O], the IC50 is 900 nM. As for `Cc1cccc2c3c(ccc12)C1=C(C(=O)C3=O)[C@@H](C)CO1` [CHEMBL227075, C[C@@H]1C(C(C(c2c3ccc4c(C)cccc24)=O)=O)=C3OC1], the IC50 is 3050 nM. As to `CC(C)(C)OC(=O)NCCc1nnc(S(=O)(=O)Cc2ccc(Cl)cc2Cl)o1` [CHEMBL259018, CC(C)(C)OC(NCCc(o1)nnc1S(Cc(ccc(Cl)c1)c1Cl)(=O)=O)=O], the IC50 is 4220 nM. Consider `CC(C)(C)c1ccc(S(=O)(=O)/C=C/C#N)cc1` [CHEMBL270299, CC(C)(C)c(cc1)ccc1S(/C=C/C#N)(=O)=O], for which the IC50 is 840 nM. As to `Sc1nnc(Nc2ccccc2)s1` [CHEMBL289356, Sc1nnc(Nc2ccccc2)s1], the IC50 was 390 nM. Consider `O=C(/C=C/c1ccc(O)c(O)c1)O[C@H](Cc1ccc(O)c(O)c1)C(=O)O` [CHEMBL324842, OC([C@@H](Cc(cc1)cc(O)c1O)OC(/C=C/c(cc1)cc(O)c1O)=O)=O], for which the IC50 is 3860 nM.

For `C[n+]1c2cc(N)ccc2cc2ccc(N)cc21` [CHEMBL354349, C[n+](c1c2)c(cc(cc3)N)c3cc1ccc2N], the IC50 is 3460 nM. In the case of `NC(=O)c1ccc2c(c1)C(=O)C(=O)N2Cc1ccc2ccccc2c1` [CHEMBL358279, NC(c(cc1)cc(C2=O)c1N(Cc1cc3ccccc3cc1)C2=O)=O], the IC50 is 245 nM.

In the case of `Cc1coc2c1C(=O)C(=O)c1c-2ccc2c(C)cccc12` [CHEMBL363535, Cc1coc(-c(ccc2c(C)cccc22)c2C2=O)c1C2=O], the IC50 was 700 nM. As to `O=C1C(=O)N(Cc2cc3ccccc3s2)c2c(Br)cccc21` [CHEMBL365134, O=C(c1cccc(Br)c1N1Cc2cc(cccc3)c3s2)C1=O], the IC50 is 980 nM. For the compound `O=C1C(=O)N(Cc2ccc3ccccc3c2)c2ccc(I)cc21` [CHEMBL383725, O=C(c(cc(cc1)I)c1N1Cc2cc3ccccc3cc2)C1=O], the IC50 was 1100 nM. In the case of `O=C1C2CC=CCC2C(=O)N1SC(Cl)(Cl)Cl` (stereo not shown) [CHEMBL388676, O=C(C(CC=CC1)C1C1=O)N1SC(Cl)(Cl)Cl], the IC50 is 670 nM. `Cc1ccc(S(=O)(=O)/C=C/C#N)cc1` [CHEMBL403183, Cc(cc1)ccc1S(/C=C/C#N)(=O)=O]: the IC50 was 820 nM. Consider `Oc1ccc2ccccc2c1SSc1c(O)ccc2ccccc12` [CHEMBL472940, Oc(ccc1ccccc11)c1SSc(c1ccccc1cc1)c1O], for which the IC50 is 510 nM. `CN(C)CCNc1nc2cc(O)ccc2c2c1C(=O)c1ccccc1-2` [CHEMBL488755, CN(C)CCNc1nc2cc(O)ccc2c(-c2c3cccc2)c1C3=O]: the IC50 was 2990 nM. Regarding `O=[N+]([O-])c1ccc(Sc2cccc[n+]2[O-])c2nonc12` [CHEMBL505670, [O-][N+](c(c1nonc11)ccc1Sc(cccc1)[n+]1[O-])=O], the IC50 is 100 nM. Regarding `O=[N+]([O-])c1cnc(Sc2nnc(O)n2-c2ccc3c(c2)OCCO3)s1` [CHEMBL508280, [O-][N+](c1cnc(Sc(n2-c(cc3)cc4c3OCCO4)nnc2O)s1)=O], the IC50 is 2050 nM. `Nc1nnc(Sc2ncc([N+](=O)[O-])s2)s1` [CHEMBL510038, Nc1nnc(Sc2ncc([N+]([O-])=O)s2)s1]: the IC50 was 30 nM. Turning to `CCOC(=O)c1c(N)sc(-c2ccccc2)c1C` [CHEMBL566136, CCOC(c1c(N)sc(-c2ccccc2)c1C)=O], the IC50 was 3190 nM. For `CC(C)N(CCC(=O)c1ccc2ccccc2c1)Cc1ccccc1` [CHEMBL596674, CC(C)N(CCC(c1cc2ccccc2cc1)=O)Cc1ccccc1], the IC50 was 580 nM. On to `O=C(O)c1ccc(SSc2ccc(C(=O)O)cn2)nc1` [CHEMBL1161936, OC(c(cc1)cnc1SSc(cc1)ncc1C(O)=O)=O], for which the IC50 is 240 nM.

Turning to `COCCCOc1ccnc(C[S+]([O-])c2nc3ccccc3[nH]2)c1C` (stereo not shown) [CHEMBL1200930, Cc(c(C[S+](c1nc(cccc2)c2[n-]1)[O-])ncc1)c1OCCCOC], the IC50 is 740 nM. Consider `C[C@@](Cc1ccc(O)c(O)c1)(NN)C(=O)O` [CHEMBL1201236, C[C@](Cc(cc1)cc(O)c1O)(C(O)=O)NN], for which the IC50 is 3550 nM. As for `Oc1cc2c(cc1O)[C@H]1c3ccccc3CN[C@@H]1CC2` [CHEMBL1256832, Oc(cc(CC[C@H]([C@@H]12)NCc3c2cccc3)c1c1)c1O], the IC50 was 1050 nM. For `O=C1C(Cl)=C(N2CCOCC2)C(=O)N1c1ccc(Cl)c(Cl)c1` [CHEMBL1271993, O=C(C(N1CCOCC1)=C(C1=O)Cl)N1c(cc1)cc(Cl)c1Cl], the 50% inhibitory concentration (IC50) was 2840 nM. For the compound `CCC(=O)OCN1C(=O)C=CC1=O` [CHEMBL1374426, CCC(OCN(C(C=C1)=O)C1=O)=O], the IC50 is 290 nM. As to `CCOc1cc(C(Nc2cc(C)ccn2)c2ccc3cccnc3c2O)ccc1OC` (stereo not shown) [CHEMBL1397952, CCOc(cc(C(c(ccc1cccnc11)c1O)Nc1nccc(C)c1)cc1)c1OC], the IC50 is 270 nM.

As for `CCN1CCN(C(c2ccc(C(F)(F)F)cc2)c2ccc3cccnc3c2O)CC1` (stereo not shown) [CHEMBL1422849, CCN(CC1)CCN1C(c1ccc(C(F)(F)F)cc1)c(ccc1cccnc11)c1O], the IC50 was 150 nM. Take `O=C1C=CC(=O)C2=C1C1c3ccccc3C2c2ccccc21` [CHEMBL1474701, O=C(C=C1)C(C(c2c(C34)cccc2)c2c4cccc2)=C3C1=O]: the IC50 was 240 nM.

Consider `COc1ccc2[nH]c([S+]([O-])Cc3ncc(C)c(OC)c3C)nc2n1` (stereo not shown) [CHEMBL1475252, Cc1cnc(C[S+](c2nc(nc(cc3)OC)c3[nH]2)[O-])c(C)c1OC], for which the IC50 is 970 nM. On to `O=C(c1ccc(/C=C/c2n[nH]c3ccccc23)cc1)N1CCNCC1` [CHEMBL1908397, O=C(c1ccc(/C=C/c2n[nH]c3c2cccc3)cc1)N1CCNCC1], for which the IC50 is 3600 nM. Take `COc1cccc(C(=O)CCN[C@@H](C)[C@H](O)c2ccccc2)c1` [CHEMBL2354521, C[C@@H]([C@@H](c1ccccc1)O)NCCC(c1cc(OC)ccc1)=O]: the IC50 was 2350 nM. On to `O=C1c2c(O)cc(O)cc2O[C@H](c2cc(O)c(O)c(O)c2)[C@H]1O` [CHEMBL3348861, O[C@H]([C@@H](c(cc1O)cc(O)c1O)Oc1c2c(O)cc(O)c1)C2=O], for which the IC50 is 180 nM. On to `Oc1cc2c(cc1C(c1ccc(C(F)(F)F)cc1)N1CCOCC1)OCO2` (stereo not shown) [CHEMBL3797437, Oc1c(C(c2ccc(C(F)(F)F)cc2)N2CCOCC2)cc2OCOc2c1], for which the IC50 was 540 nM.

In the case of `CC=C1C(OC2OC(CO)C(O)C(O)C2O)OC=C(C(=O)OC)C1CC(=O)OCCc1ccc(O)c(O)c1` (stereo not shown) [CHEMBL4303154, CC=C(C1CC(OCCc(cc2)cc(O)c2O)=O)C(OC(C(C2O)O)OC(CO)C2O)OC=C1C(OC)=O], the IC50 is 3380 nM. Take `C[C@@H]1O[C@@H](Oc2c(-c3cc(O)c(O)c(O)c3)oc3cc(O)cc(O)c3c2=O)[C@@H](O)[C@H](O)[C@H]1O` [CHEMBL4303331, C[C@@H]([C@@H]([C@H]([C@@H]1O)O)O)O[C@H]1OC1=C(c(cc2O)cc(O)c2O)Oc(cc(cc2O)O)c2C1=O]: the IC50 was 3660 nM. Consider `Oc1cc(CNC(=S)/C=C/c2cc(O)c(O)c(Br)c2)cc(O)c1O` [CHEMBL4303361, Oc1cc(CNC(/C=C/c(cc2O)cc(Br)c2O)=S)cc(O)c1O], for which the IC50 is 480 nM.

In the case of `Cc1ccccc1N(C)C(=O)c1ccc([S+]([O-])c2nccs2)c([N+](=O)[O-])c1` (stereo not shown) [CHEMBL4303376, Cc(cccc1)c1N(C)C(c(cc1)cc([N+]([O-])=O)c1[S+](c1nccs1)[O-])=O], the IC50 was 1870 nM.

For `C=C1C(=O)[C@]23[C@H](O)[C@H]1CC[C@@H]2[C@]12CO[C@]3(O)C[C@@H]1C(C)(C)CC[C@@H]2O` [CHEMBL4303503, CC(C)(CC1)[C@@H](C[C@@]([C@@]([C@@H]2O)([C@@H]3CC[C@H]2C2=C)C2=O)(O)OC2)[C@@]23[C@H]1O], the IC50 is 2570 nM. `O=C1C=Cc2cc(Br)ccc2C1=O` [CHEMBL4303595, O=C(C=Cc1c2ccc(Br)c1)C2=O]: the IC50 was 100 nM. For the compound `CCc1ccc(/C=C/C(=O)Nc2ccc(C(C)=O)cc2)o1` [CHEMBL4303618, CCc1ccc(/C=C/C(Nc(cc2)ccc2C(C)=O)=O)o1], the IC50 was 4950 nM. Consider `N#CSc1cc(SC#N)c(N)nc1N` [CHEMBL4303622, Nc(c(SC#N)c1)nc(N)c1SC#N], for which the IC50 was 1360 nM.
